The text below walks through data of patent US10940139B2, “Compounds that interact with the Ras superfamily for the treatment of cancers, inflammatory diseases, rasopathies, and fibrotic disease” (Shy Therapeutics LLC, priority 2017, dated 2021).

Molecules are shown by their SMILES.

Experiment [1] deals with TNFα production in RAW 264.7 macrophage cell line. Kind of experiment: Mouse TNF alpha quantification assay (LPS-stimulated macrophages, ELISA). Type of experiment: cell-based. The settings on record: RAW264.7, RAW 264.7 murine leukemia virus transformed macrophage cell lines, LPS stimulation, read-out: TNF-α % Inhibition at 30 μM.
For experiment [2], the system named is IL6 production in RAW 264.7 macrophage cell line. Description: Mouse IL6 quantification assay (LPS-stimulated macrophages, ELISA). Type of experiment: cell-based. To be noted: RAW264.7, RAW 264.7 murine leukemia virus transformed macrophage cell lines, LPS stimulation, read-out: IL-6 % Inhibition at 30 μM. For orientation: In an ELISA, binding on a coated surface is turned into a signal by an enzyme label.

With `Oc1nc(-c2ccccn2)nc2c3c(sc12)CNC3` [drawing 2315], the inhibition at 30 µM is 1 to 25% in experiment [1] and 0% in experiment [2].

Take `COc1cnc(CNC(=O)c2c(C)sc3c(O)nc(-c4ccccn4)nc23)[nH]c1=O` [drawing 2350]: the inhibition at 30 µM was 1 to 25% in experiment [1] and 0% in experiment [2].

For the compound `Cc1c(C(=O)Nc2nnc(-c3ccccn3)[nH]2)oc2ccccc12` [drawing 1936], the inhibition at 30 µM in experiment [1] was 1 to 25%; in experiment [2], 0%.

On to `COc1cc(OC)cc(N2CCN(C(=O)c3csc4c(O)nc(-c5ccccn5)nc34)CC2)c1` [drawing 2183], for which the inhibition at 30 µM in experiment [1] lay within 1 to 25%; in experiment [2] it was 26 to 50%.

With `Cc1cc2nc(-c3ccccn3)nc(N)c2s1` [drawing 2229], the inhibition at 30 µM in experiment [1] and in experiment [2] was 1 to 25% each time.

For `CCOc1cc(C(=O)Oc2c(C)ccc(C)c2C)cc(OCC)c1OCC` [drawing 2057], the inhibition at 30 µM in experiment [1] lay in the range of 1 to 25%; in experiment [2] it was 51 to 75%.

As for `Oc1nc(-c2ccccn2)nc2c(-c3cc(C(F)(F)F)ccc3F)csc12` [drawing 2303], the inhibition at 30 µM lay in the range of 1 to 25% in experiment [1] and 76 to 100% in experiment [2].

In the case of `O=C(c1csc2c(O)nc(-c3ccccn3)nc12)N1CCOC(Cc2ccccc2)C1` (centres unmarked) [drawing 2195], the inhibition at 30 µM was 0% in experiment [1] and 76 to 100% in experiment [2].

With `Cc1sc2c(O)nc(-c3ccccn3)nc2c1Br` [drawing 2349], the inhibition at 30 µM in experiment [1] is 0%; in experiment [2], 26 to 50%.

For the compound `O=C(c1ccc2ccccc2n1)N1CCCc2c(O)nc(-c3ccccn3)nc21` [drawing 2075], the inhibition at 30 µM fell in the range of 1 to 25% in experiment [1] and 76 to 100% in experiment [2].

Consider `COCC(C)Nc1nc(-c2nccn2C)nc2sc(-c3ccccc3)c(-c3ccccc3)c12` (centres unmarked) [drawing 2404], for which the inhibition at 30 µM in experiment [1] and in experiment [2] was 76 to 100% throughout.

Take `COc1ccccc1C1CN(C(=O)c2csc3c(O)nc(-c4ccccn4)nc23)CCO1` (centres unmarked) [drawing 2192]: the inhibition at 30 µM lay within 51 to 75% in experiment [1] and 76 to 100% in experiment [2].

As for `Oc1nc(-c2ccccn2)nc2c(C3CC3)csc12` [drawing 2345], the inhibition at 30 µM in experiment [1] and in experiment [2] was 1 to 25% throughout.

As to `Oc1nc(-c2ccccn2)nc2c(-c3ccc(OC4CCOC4)cc3)csc12` (centres unmarked) [drawing 2254], the results for the inhibition at 30 µM in experiment [1] and in experiment [2] were 26 to 50% and 76 to 100%, respectively.

`CC(C1CC1)N(CC(F)(F)F)C(=O)Cc1ccc(-c2ccccc2)cc1` (centres unmarked) [drawing 2064]: the inhibition at 30 µM in experiment [1] and in experiment [2] was 1 to 25% throughout.

With `Cn1ccc(C(=O)Nc2nnc(-c3ccccn3)[nH]2)cc1=O` [drawing 1945], the inhibition at 30 µM in experiment [1] was 1 to 25%; in experiment [2] it was 0%.

As for `Nc1nc(-c2ccccn2)nc2scc(C(=O)O)c12` [drawing 2298], the inhibition at 30 µM in experiment [1] and in experiment [2] was 1 to 25% each time.

Turning to `Cn1cc(-c2nc(C(=O)Nc3nnc(-c4ccccn4)[nH]3)cs2)cn1` [drawing 1944], the values for the inhibition at 30 µM in experiment [1] and in experiment [2] were 1 to 25% and 51 to 75%, respectively.

For the compound `COC(=O)c1sc2c(O)nc(-c3ccccn3)nc2c1C` [drawing 2314], the inhibition at 30 µM was 0% in experiment [1] and 1 to 25% in experiment [2].

`O=C(Nc1nnc(-c2ccccn2)[nH]1)c1ccc(Oc2ccccc2)nc1` [drawing 1956]: the inhibition at 30 µM in experiment [1] was in the range of 1 to 25%; in experiment [2] it was 26 to 50%.

Regarding `COc1ccc(-c2c(-c3ccccc3)sc3c(O)nc(-c4nccn4C)nc23)cn1` [drawing 2420], the inhibition at 30 µM in experiment [1] and in experiment [2] was 26 to 50% each time.

With `CC1CN(c2ccccc2)CCN1C(=O)c1csc2c(O)nc(-c3ccccn3)nc12` (centres unmarked) [drawing 2186], the results for the inhibition at 30 µM in experiment [1] and in experiment [2] were 26 to 50% and 76 to 100%, respectively.

With `COc1nc(-c2ccccn2)nc2c(C3CCCCC3)csc12` [drawing 2317], the inhibition at 30 µM in experiment [1] lay within 1 to 25%; in experiment [2], 26 to 50%.

With `Oc1nc(-c2ccccn2)nc2c(-c3ccc(C4CCC4)cc3)csc12` [drawing 2257], the inhibition at 30 µM in experiment [1] was 0%; in experiment [2], 51 to 75%.

With `CC(C)COc1ccc(-c2c(-c3ccccc3)sc3c(O)nc(-c4nccn4C)nc23)cn1` [drawing 2414], the inhibition at 30 µM was 1 to 25% in experiment [1] and 51 to 75% in experiment [2].

As to `COCCN(CCOC)c1nc(-c2ccccn2)nc2scc(C(=O)NCCc3ccc(OC)nc3)c12` [drawing 2206], the figures for the inhibition at 30 µM in experiment [1] and in experiment [2] were 0% and 1 to 25%, respectively.

As for `O=C(c1csc2c(O)nc(-c3ccccn3)nc12)N1CCNC(c2ccc(O)cc2)C1` (centres unmarked) [drawing 2218], the inhibition at 30 µM was 0% in experiment [1] and 1 to 25% in experiment [2].

For the compound `O=C(c1csc2c(O)nc(-c3ccccn3)nc12)N1CCNC(c2ccc(F)cc2)C1` (centres unmarked) [drawing 2217], the values for the inhibition at 30 µM in experiment [1] and in experiment [2] were 0% and 1 to 25%, respectively.

For the compound `COc1cncc(CCNC(=O)c2csc3nc(-c4ccccn4)nc(N4CCOCC4)c23)c1`, the inhibition at 30 µM in experiment [1] is 0%; in experiment [2], 1 to 25%.

Consider `OCCNc1nc(-c2ccccn2)nc2scc(-c3ccccc3)c12` [drawing 2038], for which the inhibition at 30 µM in experiment [1] was 0%; in experiment [2], 1 to 25%.

Regarding `COCCNc1nc(-c2nccn2C)nc2sc(-c3ccccc3)c(-c3ccccc3)c12` [drawing 2362], the inhibition at 30 µM lay within 26 to 50% in experiment [1] and 51 to 75% in experiment [2].

Take `Nc1nc(O)c2scc(C(=O)N3CCC(N4CCCC4=O)CC3)c2n1` [drawing 2094]: the inhibition at 30 µM is 0% in experiment [1] and 1 to 25% in experiment [2].

On to `COCCNc1nc(-c2ccccn2)nc2scc(-c3ccccc3)c12` [drawing 2161], for which the inhibition at 30 µM in experiment [1] and in experiment [2] was 76 to 100% each time.

On to `O=C(COc1ccc2c(c1)CCC2)Nc1nnc(-c2ccccn2)[nH]1` [drawing 1978], for which the inhibition at 30 µM in experiment [1] is 0%; in experiment [2], 1 to 25%.

As for `Nc1nc(-c2ccccn2)nc2ccsc12` [drawing 2227], the values for the inhibition at 30 µM in experiment [1] and in experiment [2] were 1 to 25% and 0%, respectively.

Consider `CC(C)NC(=O)Nc1cccc(C(=O)Nc2nnc(-c3ccccn3)[nH]2)c1` [drawing 1926], for which the values for the inhibition at 30 µM in experiment [1] and in experiment [2] were 1 to 25% and 0%, respectively.

As for `COc1ccc(CCNC(=O)c2csc3nc(-c4ccccn4)nc(N4CCS(=O)(=O)CC4)c23)cn1` [drawing 2246], the inhibition at 30 µM in experiment [1] is 0%; in experiment [2], 26 to 50%.

Take `Cn1ccnc1-c1nc(O)c2sc(-c3ccccc3)c(-c3cccc(C(F)(F)F)c3)c2n1` [drawing 2419]: the inhibition at 30 µM in experiment [1] and in experiment [2] was 26 to 50% each time.

As to `Cc1sc2nc(-c3ccccn3)nc(NCCCO)c2c1-c1ccccc1` [drawing 2045], the inhibition at 30 µM in experiment [1] and in experiment [2] was 1 to 25% in each case.

As for `O=C(NCCc1ccncn1)c1csc2nc(-c3ccccn3)nc(N3CCOCC3)c12` [drawing 2321], the figures for the inhibition at 30 µM in experiment [1] and in experiment [2] were 0% and 1 to 25%, respectively.

On to `Oc1nc(-c2ccccn2)nc2c(-c3cncc(F)c3)csc12` [drawing 2302], for which the inhibition at 30 µM is 0% in experiment [1] and 51 to 75% in experiment [2].

For the compound `OCC1(c2ccc(-c3nc(-c4ccccn4)nc(O)c3Oc3ccccc3)cc2)CC1` [drawing 2361], the inhibition at 30 µM was 26 to 50% in experiment [1] and 0% in experiment [2].

As to `CN1CCN(c2nc(-c3ccccn3)nc3scc(C(=O)NCCc4cnc(O)nc4)c23)CC1` [drawing 2291], the inhibition at 30 µM in experiment [1] and in experiment [2] was 26 to 50% throughout.

With `Cn1ccnc1-c1nc(O)c2scc(-c3cccc(OC(F)(F)F)c3)c2n1` [drawing 2430], the inhibition at 30 µM in experiment [1] lay in the range of 51 to 75%; in experiment [2] it was 76 to 100%.

As for `CC(C)CNC(=O)CN1CCN(c2nc(-c3ccccn3)nc3scc(-c4ccccc4)c23)CC1` [drawing 2151], the inhibition at 30 µM in experiment [1] lay within 26 to 50%; in experiment [2], 76 to 100%.

`CC(C)(C)c1ccc(-c2csc3c(O)nc(-c4ccccn4)nc23)cc1` [drawing 2240]: the inhibition at 30 µM in experiment [1] and in experiment [2] was 76 to 100% in each case.

Take `Oc1nc(-c2ccccn2)nc2c(-c3ccc(CN4CCOCC4)cc3)csc12` [drawing 2274]: the inhibition at 30 µM is 0% in experiment [1] and 26 to 50% in experiment [2].

Consider `O=C(c1csc2c(O)nc(-c3ccccn3)nc12)N1CCN(c2ccc(O)c(Cl)c2)CC1` [drawing 2214], for which the inhibition at 30 µM in experiment [1] was 0%; in experiment [2] it was 26 to 50%.

Take `O=C(NCCc1cnc(O)nc1)c1csc2nc(-c3ccccn3)nc(N3CCS(=O)(=O)CC3)c12` [drawing 2247]: the inhibition at 30 µM in experiment [1] is 0%; in experiment [2] it was 51 to 75%.

Turning to `COCCCC1CCN(C(=O)c2csc3c(O)nc(N)nc23)CC1` [drawing 2092], the figures for the inhibition at 30 µM in experiment [1] and in experiment [2] were 1 to 25% and 0%, respectively.

With `Cc1noc(C)c1CC(=O)Nc1nnc(-c2ccccn2)[nH]1` [drawing 1957], the figures for the inhibition at 30 µM in experiment [1] and in experiment [2] were 0% and 1 to 25%, respectively.

Take `Oc1nc(-c2ccccn2)nc2cc(-c3ccccc3Cl)sc12` [drawing 2383]: the inhibition at 30 µM was 0% in experiment [1] and 26 to 50% in experiment [2].

Consider `Cn1cc(C2CN(C(=O)c3csc4c(O)nc(-c5ccccn5)nc34)CCN2)cn1` (centres unmarked) [drawing 2201], for which the inhibition at 30 µM in experiment [1] and in experiment [2] was 76 to 100% in each case.

Take `COCCCCNC(=O)c1csc2nc(-c3ccccn3)nc(N3CCS(=O)(=O)CC3)c12` [drawing 2219]: the values for the inhibition at 30 µM in experiment [1] and in experiment [2] were 0% and 26 to 50%, respectively.

For the compound `O=C(c1csc2c(O)nc(-c3ccccn3)nc12)N1CCNC(Cc2ccc(F)cc2)C1` (centres unmarked) [drawing 2224], the figures for the inhibition at 30 µM in experiment [1] and in experiment [2] were 1 to 25% and 26 to 50%, respectively.

As usually defined, the inhibition is how much of the control response was suppressed.
